Tests used:
KAT6A = biological target: T1, KAT6A (Homo sapiens, UniProt Q92794); assay: Enzymatic activity assay KAT6 (AlphaScreen method); format: biochemical; settings: KAT enzyme 1.25 nM, Ac-CoA 1000 nM, H3 55 nM
T1 construct: purchased Chempartner (customized)
Text: • 1. KAT6A (customized by Chempartner) • 2. Ovalbumin (Sigma-Aldrich, A5378-5G) • 3. 2 M Tris-HCl solution, pH 7.8, sterile (Sangon, B548140-0500) • 4. 5 M NaCl solution (Sangon, B548121-0100) • 5. EDTA (0.5 M), pH 8.0, RNase-free (Thermofisher, AM9260G) • 6. Tween-20 (Sangon, A100777-0500) • 7. DTT, 1 M (Invitrogen, P2325) • 8. Acetyl coenzyme A (Ac-CoA, CAYMAN, Cat. No. 16160) • 9. Recombinant histone H3.1 biotinylated (human) (Active Motif 31696) • 10. 384-well plate, light gray (PerkinElmer, Cat. No. 6005350) • 11. Anacardic acid (MCE, Cat. No. HY-N2020) • 12. AlphaScreen streptavidin donor beads, 5 mg (PerkinElmer, 6760002) • 13. AlphaScreen protein A acceptor beads, 5 mg (PerkinElmer, 6760137M) • 14. Acetylated-lysine antibody #9441 (CST 9441S) • 15. PHERA star microplate reader (BMG labtech)
• a. 1× assay buffer: 100 mM Tris-HCl, pH 7.8; 15 mM NaCl; 1 mM EDTA; 0.01% tween-20; 1 mM DTT; 0.01% m/v ovalbumin. • b. KAT enzyme solution: 1.25 nM (final concentration), prepared in 1× assay buffer. • c. […]
The prepared enzyme solution was added to a 384-well plate at 3 µL/well, and 3 µL of 1× assay buffer was added to each well in columns 23 and 24 (Min). […] Plate reading was performed on the microplate reader, and AlphaScreen counts were recorded. Plotting was performed using the Graphpad software, and the IC50 values of the compounds were calculated. […]

ZR-75-1 = assay: Anti-ZR-75-1 proliferation assay (CellTiter-Glo); format: cell-based; settings: CTG assay on day 14
Text: • 1. ZR-75-1 (ATCC CRL1500) • 2. 1640 medium (Gibco, 22400-089) • 3. 0.25% trypsin-EDTA (1×) (Gibco, 25200-072) • 4. Penicillin-streptomycin (Gibco, 15140-122) • 5. DPBS (1×) (Gibco, 14190-144) • 6. FBS (Gibco, 10091148) • 7. Assay plate, 96-well, black with clear bottom (Corning, 3603) • 8. 96-well non-treated round-bottom plate (JET BIOFIL, TCP-002-096) • 9. CellTiter-Glo buffer (Promega, G756B) • 10. CellTiter-Glo substrate (Promega, G755B) • 11. Automatic cell counter (Countstar, IC1000) • 12. Thermostatic incubator (Thermo, I160) • 13. PHERAstar FS (BMG labtech, PHERAstar FS)
• a. The state of cells was observed under a microscope to make sure that the cell confluence was about 90%. • b. The cell supernatant was discarded. The cells were rinsed with DPBS once, and the DPBS was removed. The cells were digested with a proper amount of trypsin and left to stand at 37 °C for 5 min. • c. The digestion was stopped with an equal volume of 1640 medium containing 10% FBS, and the cell suspension was collected and centrifuged at 300 g for 3 min. The cells were suspended in a proper amount of fresh medium. • d. The resulting cell suspension was collected and cell counting was performed. • e. The cell suspension was diluted to 5 × 10^4 cells/mL, 50 µL/well with 1640 medium containing 10% FBS. Each well contained 2500 ZR-75-1 cells. • f. […]

[1] = Long-term/accelerated stability of crystal forms; format: physicochemical
Experimental: Free-state samples were sealed in aluminum foil bags and left to stand in 25 °C/60% RH and 40 °C/75% RH conditions to test their stability.

[2] = Stability influencing factor study of crystal forms; format: physicochemical
Experimental: Free-state samples were spread out, left to stand in open flasks, and subjected to 30-day stability tests in light exposure (4500 Lux), high temperature (40 °C and 60 °C), and high humidity (RH 75% and RH 92.5%) conditions.

[3] = Hygroscopicity study of crystal forms (DVS); format: physicochemical; settings: for 0.0%RH-80.0%RH: DVS mass change, 25 °C; for Crystal form: crystal form after DVS test
Experimental: DVS refers to dynamic vapor sorption: The analysis was performed using SMS DVS Advantage; at 25 °C, the humidity was changed as follows: 50%-95%-0%-95%-50%, in steps of 10% (5% for the last step) (specific humidity ranges are shown in corresponding patterns, and those listed here were used in most cases); the criterion was dm/dt being not greater than 0.002%.
Surface Measurement Systems intrinsic DVS was adopted. At 25 °C, the crystal forms were tested in a humidity range of 0%-95%, with increments of 10%. The criterion was that each gradient mass change dM/dT is less than 0.002%, TMAX 360 min, two cycles.

T1 sequence (Q92794 whole entry, species assumed): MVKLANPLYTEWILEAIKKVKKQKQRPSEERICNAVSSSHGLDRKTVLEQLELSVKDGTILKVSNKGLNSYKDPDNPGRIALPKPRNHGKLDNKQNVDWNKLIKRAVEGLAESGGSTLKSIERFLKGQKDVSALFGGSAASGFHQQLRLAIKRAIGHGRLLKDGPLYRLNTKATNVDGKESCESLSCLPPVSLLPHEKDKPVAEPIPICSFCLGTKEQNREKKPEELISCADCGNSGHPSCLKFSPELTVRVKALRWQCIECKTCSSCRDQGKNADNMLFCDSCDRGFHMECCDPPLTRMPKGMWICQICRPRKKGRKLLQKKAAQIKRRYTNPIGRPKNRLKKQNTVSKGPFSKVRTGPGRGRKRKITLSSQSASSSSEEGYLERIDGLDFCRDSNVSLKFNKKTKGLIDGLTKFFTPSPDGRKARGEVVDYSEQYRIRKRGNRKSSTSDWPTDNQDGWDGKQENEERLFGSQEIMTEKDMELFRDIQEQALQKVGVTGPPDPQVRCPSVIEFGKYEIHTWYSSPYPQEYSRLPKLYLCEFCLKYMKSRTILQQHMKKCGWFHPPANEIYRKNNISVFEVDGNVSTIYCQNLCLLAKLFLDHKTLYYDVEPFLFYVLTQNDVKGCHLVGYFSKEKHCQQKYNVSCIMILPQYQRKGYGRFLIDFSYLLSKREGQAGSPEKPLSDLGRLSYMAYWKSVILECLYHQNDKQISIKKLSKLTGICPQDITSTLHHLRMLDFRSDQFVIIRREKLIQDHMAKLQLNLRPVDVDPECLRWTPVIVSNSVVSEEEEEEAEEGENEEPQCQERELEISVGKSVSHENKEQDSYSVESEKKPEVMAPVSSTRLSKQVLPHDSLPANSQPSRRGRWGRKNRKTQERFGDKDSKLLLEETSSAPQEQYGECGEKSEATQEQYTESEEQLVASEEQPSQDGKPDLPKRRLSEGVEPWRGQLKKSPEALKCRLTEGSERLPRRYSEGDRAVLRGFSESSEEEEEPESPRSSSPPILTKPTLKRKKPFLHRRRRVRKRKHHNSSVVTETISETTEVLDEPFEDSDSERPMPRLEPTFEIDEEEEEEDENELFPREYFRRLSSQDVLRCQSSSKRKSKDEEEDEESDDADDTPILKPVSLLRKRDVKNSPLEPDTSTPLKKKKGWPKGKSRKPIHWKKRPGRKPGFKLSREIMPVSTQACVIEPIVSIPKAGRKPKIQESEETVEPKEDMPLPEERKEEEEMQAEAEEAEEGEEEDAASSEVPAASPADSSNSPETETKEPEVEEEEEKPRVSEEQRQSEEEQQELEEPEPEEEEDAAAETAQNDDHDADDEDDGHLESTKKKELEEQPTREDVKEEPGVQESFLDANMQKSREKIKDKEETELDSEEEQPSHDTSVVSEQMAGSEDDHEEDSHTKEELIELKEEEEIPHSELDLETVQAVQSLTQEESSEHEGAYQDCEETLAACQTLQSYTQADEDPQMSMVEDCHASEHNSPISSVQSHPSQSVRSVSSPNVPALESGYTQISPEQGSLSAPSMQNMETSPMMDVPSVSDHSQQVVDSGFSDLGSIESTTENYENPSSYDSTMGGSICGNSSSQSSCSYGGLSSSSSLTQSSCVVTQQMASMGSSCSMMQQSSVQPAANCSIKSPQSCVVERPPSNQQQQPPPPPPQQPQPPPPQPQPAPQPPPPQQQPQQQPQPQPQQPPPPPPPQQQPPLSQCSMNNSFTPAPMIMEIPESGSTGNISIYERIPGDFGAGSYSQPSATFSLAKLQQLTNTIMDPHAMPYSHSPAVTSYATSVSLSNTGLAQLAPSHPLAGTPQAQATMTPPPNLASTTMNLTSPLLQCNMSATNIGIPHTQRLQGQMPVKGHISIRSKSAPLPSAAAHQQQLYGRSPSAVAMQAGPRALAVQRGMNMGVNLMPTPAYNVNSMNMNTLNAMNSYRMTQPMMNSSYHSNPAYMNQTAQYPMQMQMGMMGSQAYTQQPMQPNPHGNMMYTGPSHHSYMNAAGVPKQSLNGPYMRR

In the case of COc1cccc(OC)c1S(=O)(=O)Nc1noc2cc(Cn3cccn3)c3c(c12)OCCC3 [Compound of formula 1, N-(5-((1H-pyrazol-1-yl)methyl)-3,4-dihydro-2H-chromeno[8,7-d]isoxazol-9-yl)-2,6-dimethoxybenzenesulfonamide], the IC50 (KAT6A) is reported as 0.3 nM, the “Maximum inhibition rate/Imax%” value (ZR-75-1) is reported as 96% and the IC50 (ZR-75-1; Homo sapiens, ZR-75-1, 336 h) is reported as 0.4 nM.
For COc1cccc(OC)c1S(=O)(=O)Nc1noc2cc(Cn3cccn3)c3c(c12)OCCC3 [Crystal form A, N-(5-((1H-pyrazol-1-yl)methyl)-3,4-dihydro-2H-chromeno[8,7-d]isoxazol-9-yl)-2,6-dimethoxybenzenesulfonamide], the Crystal form ([1]; 25 °C/60%RH) was “No change”, the Purity% ([1]; 25 °C/60%RH, 1 month) was 99.1% and the Purity% ([1]; 25 °C/60%RH, 2 months) was 99.1%. The Purity% ([1]; 25 °C/60%RH, 3 months) was 99.1%, the Purity% ([1]; 25 °C/60%RH, 9 months) was 99.1% and the Purity% ([1]; 25 °C/60%RH, 14 days) was 99.1%. The Purity% ([1]; 25 °C/60%RH, Initial) was 99.1%, the Crystal form ([1]; 40 °C/75%RH) was “No change” and the Purity% ([1]; 40 °C/75%RH, 1 month) was 99.1%. For the same compound, the Purity% ([1]; 40 °C/75%RH, 2 months) was 99.1%, the Purity% ([1]; 40 °C/75%RH, 3 months) was 99.1% and the Purity% ([1]; 40 °C/75%RH, 9 months) was 99.1%. It also gave a Purity% ([1]; 40 °C/75%RH, 14 days) of 99.1%, a Purity% ([1]; 40 °C/75%RH, Initial) of 99.1% and a Purity% ([2]; 40 °C, 5 days) of 99.1%. It also gave a Purity% ([2]; 40 °C, 10 days) of 99.1%, a Purity% ([2]; 40 °C, 30 days) of 99.1% and a Purity% ([2]; 60 °C, 7 days) of 99.1%. For the same compound, the Purity% ([2]; 60 °C, 14 days) was 99.1%, the Purity% ([2]; 60 °C, 30 days) was 99.1% and the Purity% ([2]; 75% RH, 7 days) was 99.1%. The Purity% ([2]; 75% RH, 14 days) was 99.1%, the Purity% ([2]; 75% RH, 30 days) was 99.1% and the Purity% ([2]; 92.5% RH, 7 days) was 99.1%. The Purity% ([2]; 92.5% RH, 14 days) was 99.1%, the Purity% ([2]; 92.5% RH, 30 days) was 99.1% and the Purity% ([2]; Initial, 0 days) was 99.1%. For the same compound, the Purity% ([2]; Light exposure (4500 Lux), 7 days) was 99.0%, the Purity% ([2]; Light exposure (4500 Lux), 14 days) was 98.9% and the Purity% ([2]; Light exposure (4500 Lux), 30 days) was 98.9%. The 0.0%RH-80.0%RH [3] was 0.10% and the Crystal form [3] was “No change”.
In the case of COc1cccc(OC)c1S(=O)(=O)Nc1noc2cc(Cn3cccn3)c3c(c12)OCCC3 [Crystal form H, N-(5-((1H-pyrazol-1-yl)methyl)-3,4-dihydro-2H-chromeno[8,7-d]isoxazol-9-yl)-2,6-dimethoxybenzenesulfonamide], the 0.0%RH-80.0%RH [3] is reported as 19.91% and the Crystal form [3] is reported as “No change”.
